Laboratory results as given in patent publication US8871753B2, “Macrocyclic compounds and their use as kinase inhibitors” (Incyte Corporation, priority 2008, dated 2014).
Where a name gives a salt, the structure may show the parent alone. Read-outs that look alike come from different tables or passages of the source.

Assays:
Type in all cases: biochemical
[1] = target: T1, human JAK1 (a.a. 837-1142) (Homo sapiens, UniProt P23458); experiment: In vitro JAK kinase assay (HTRF, phosphorylation of a biotinylated peptide), JAK1; conditions: read-out: JAK1 IC50
T1 construct: human JAK1 (a.a. 837-1142); His tag (N); made in house; host or cells: insect cells (baculovirus)
T1 sequence (P23458 849-1154): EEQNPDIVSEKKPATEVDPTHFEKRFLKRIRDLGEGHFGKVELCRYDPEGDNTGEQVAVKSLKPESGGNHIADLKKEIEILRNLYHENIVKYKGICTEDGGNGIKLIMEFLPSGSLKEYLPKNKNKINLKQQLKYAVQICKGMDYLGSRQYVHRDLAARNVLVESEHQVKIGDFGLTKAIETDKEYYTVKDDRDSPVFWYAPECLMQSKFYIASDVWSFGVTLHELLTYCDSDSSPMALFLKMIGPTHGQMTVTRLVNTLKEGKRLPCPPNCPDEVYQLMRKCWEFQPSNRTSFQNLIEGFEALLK
Outline: (§1)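 Phosphorylation of a biotinylated peptide by the JAK kinase domain, detected by HTRF with Eu-Py20 and SA-APC. ATP was 90 μM for JAK1, 30 μM for JAK2 and 3 μM for JAK3. Reactions ran 1 h at room temperature and were stopped with EDTA, followed by 40 min antibody binding.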

[2] = target: T2, human JAK2 (a.a. 828-1132) (Homo sapiens, UniProt O60674); experiment: In vitro JAK kinase assay (HTRF, phosphorylation of a biotinylated peptide), JAK2
T2 construct: JAK2 (a.a. 828-1132); His tag (N); made in house; host or cells: insect cells (baculovirus)
T2 sequence (O60674 828-1132): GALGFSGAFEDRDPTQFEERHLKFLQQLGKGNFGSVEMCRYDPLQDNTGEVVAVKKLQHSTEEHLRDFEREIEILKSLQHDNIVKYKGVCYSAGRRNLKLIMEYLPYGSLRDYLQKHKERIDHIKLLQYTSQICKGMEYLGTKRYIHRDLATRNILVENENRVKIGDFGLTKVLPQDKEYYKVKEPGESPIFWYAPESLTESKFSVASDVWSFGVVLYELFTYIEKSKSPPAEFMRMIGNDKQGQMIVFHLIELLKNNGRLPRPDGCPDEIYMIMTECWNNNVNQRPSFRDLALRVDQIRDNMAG
Outline: as §1

[3] = target: T3, human JAK3 (a.a. 781-1124) (Homo sapiens, UniProt P52333); experiment: In vitro JAK kinase assay (HTRF, phosphorylation of a biotinylated peptide), JAK3
T3 construct: JAK3 (a.a. 781-1124); His tag (N); made in house; host or cells: insect cells (baculovirus)
T3 sequence (P52333 781-1124): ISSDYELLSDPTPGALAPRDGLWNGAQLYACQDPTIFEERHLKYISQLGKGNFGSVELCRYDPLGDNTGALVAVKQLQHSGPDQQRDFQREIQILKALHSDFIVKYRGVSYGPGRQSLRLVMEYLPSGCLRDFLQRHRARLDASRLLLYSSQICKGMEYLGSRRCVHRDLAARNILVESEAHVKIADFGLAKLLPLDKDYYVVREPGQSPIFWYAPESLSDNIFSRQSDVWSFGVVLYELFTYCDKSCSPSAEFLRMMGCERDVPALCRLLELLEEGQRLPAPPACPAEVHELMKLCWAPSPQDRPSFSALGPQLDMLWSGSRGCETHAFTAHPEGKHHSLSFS
Outline: as §1

TYK2 = TYK2 (Homo sapiens, UniProt P29597); experiment: TYK2 kinase inhibition (Table A1)
Sequence of TYK2 (P29597 whole entry): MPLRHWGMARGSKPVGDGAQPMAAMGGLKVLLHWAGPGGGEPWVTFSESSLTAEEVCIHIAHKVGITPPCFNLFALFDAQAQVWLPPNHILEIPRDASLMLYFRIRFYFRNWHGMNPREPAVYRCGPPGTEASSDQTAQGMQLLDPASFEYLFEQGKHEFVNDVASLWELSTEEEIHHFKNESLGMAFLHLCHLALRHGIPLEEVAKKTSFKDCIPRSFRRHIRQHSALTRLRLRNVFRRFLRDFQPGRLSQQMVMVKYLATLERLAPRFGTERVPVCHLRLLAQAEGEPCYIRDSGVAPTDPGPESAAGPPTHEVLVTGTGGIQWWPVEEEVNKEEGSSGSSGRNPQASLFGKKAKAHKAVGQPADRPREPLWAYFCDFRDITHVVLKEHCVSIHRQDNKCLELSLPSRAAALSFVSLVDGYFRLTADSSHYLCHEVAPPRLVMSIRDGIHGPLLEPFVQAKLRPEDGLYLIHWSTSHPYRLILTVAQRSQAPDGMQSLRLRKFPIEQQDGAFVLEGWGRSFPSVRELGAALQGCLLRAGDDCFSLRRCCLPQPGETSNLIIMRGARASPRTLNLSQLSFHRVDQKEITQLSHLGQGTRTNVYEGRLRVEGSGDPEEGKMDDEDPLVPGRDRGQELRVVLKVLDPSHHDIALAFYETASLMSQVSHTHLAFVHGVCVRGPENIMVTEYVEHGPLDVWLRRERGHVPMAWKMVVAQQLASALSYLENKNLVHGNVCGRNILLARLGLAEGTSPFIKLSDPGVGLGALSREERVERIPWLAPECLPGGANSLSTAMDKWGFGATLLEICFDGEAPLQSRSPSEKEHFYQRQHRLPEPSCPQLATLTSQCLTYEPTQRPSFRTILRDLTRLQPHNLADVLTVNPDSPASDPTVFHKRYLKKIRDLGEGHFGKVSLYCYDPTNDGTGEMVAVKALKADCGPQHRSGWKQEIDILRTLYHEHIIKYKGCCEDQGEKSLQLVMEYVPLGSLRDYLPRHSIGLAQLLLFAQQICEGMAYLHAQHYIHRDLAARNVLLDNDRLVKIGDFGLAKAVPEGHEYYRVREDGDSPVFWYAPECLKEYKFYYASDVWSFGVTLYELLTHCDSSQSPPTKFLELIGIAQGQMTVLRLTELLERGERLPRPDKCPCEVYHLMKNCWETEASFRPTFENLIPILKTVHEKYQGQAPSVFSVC

[4] = target: T4, Recombinant Human Anaplastic Lymphoma Kinase (Homo sapiens, UniProt Q9UM73); experiment: ALK HTRF kinase assay; conditions: for IC50: Table B1, cells without percent sign
T4 construct: purchased Invitrogen, Carlsbad, Calif
T4 sequence (Q9UM73 19-1620): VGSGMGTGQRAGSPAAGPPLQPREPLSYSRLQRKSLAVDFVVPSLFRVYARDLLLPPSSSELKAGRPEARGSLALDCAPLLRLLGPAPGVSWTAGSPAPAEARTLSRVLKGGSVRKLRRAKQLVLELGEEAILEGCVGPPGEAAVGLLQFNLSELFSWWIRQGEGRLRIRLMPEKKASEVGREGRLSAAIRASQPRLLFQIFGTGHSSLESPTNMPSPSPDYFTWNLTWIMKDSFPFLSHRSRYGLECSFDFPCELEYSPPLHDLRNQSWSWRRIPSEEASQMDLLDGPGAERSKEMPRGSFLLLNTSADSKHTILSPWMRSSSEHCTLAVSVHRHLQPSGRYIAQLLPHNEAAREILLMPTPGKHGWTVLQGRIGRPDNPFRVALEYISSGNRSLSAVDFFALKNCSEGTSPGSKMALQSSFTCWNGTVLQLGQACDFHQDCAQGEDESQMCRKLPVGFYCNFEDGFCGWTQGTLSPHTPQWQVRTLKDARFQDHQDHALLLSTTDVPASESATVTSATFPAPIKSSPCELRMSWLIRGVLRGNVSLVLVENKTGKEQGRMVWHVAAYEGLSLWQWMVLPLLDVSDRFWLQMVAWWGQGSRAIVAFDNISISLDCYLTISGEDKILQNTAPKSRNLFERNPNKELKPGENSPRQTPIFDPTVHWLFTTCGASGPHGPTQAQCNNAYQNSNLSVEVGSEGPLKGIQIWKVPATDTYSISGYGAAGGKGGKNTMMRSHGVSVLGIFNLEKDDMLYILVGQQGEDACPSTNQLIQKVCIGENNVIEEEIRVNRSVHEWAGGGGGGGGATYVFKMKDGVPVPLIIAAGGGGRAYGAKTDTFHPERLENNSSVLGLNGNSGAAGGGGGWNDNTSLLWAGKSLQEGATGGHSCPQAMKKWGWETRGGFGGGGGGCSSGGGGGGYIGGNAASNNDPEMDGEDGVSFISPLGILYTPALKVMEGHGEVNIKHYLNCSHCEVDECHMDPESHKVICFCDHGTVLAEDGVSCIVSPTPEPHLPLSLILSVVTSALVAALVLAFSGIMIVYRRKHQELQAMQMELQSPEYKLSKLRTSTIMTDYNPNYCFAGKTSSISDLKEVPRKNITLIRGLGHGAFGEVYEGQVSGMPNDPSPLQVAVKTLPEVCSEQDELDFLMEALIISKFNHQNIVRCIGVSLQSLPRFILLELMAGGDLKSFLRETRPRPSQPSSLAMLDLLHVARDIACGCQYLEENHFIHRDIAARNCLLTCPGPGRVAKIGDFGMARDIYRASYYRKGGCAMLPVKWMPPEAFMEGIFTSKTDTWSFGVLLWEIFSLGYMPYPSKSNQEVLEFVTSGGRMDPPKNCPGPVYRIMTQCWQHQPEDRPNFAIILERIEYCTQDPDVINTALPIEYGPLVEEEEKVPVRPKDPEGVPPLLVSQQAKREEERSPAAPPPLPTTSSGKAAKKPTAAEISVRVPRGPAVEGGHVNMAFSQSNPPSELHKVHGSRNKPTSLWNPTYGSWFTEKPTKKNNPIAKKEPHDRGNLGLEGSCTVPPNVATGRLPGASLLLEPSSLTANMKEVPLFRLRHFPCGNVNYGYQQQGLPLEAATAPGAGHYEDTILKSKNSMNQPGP
Outline: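 Recombinant human ALK phosphorylated a biotinylated synthetic peptide. Phosphotyrosine was detected by TR-FRET between a Eu-labelled anti-phosphotyrosine antibody and streptavidin-allophycocyanin. IC50 values came from fitting signal against inhibitor concentration to a four-parameter logistic equation with variable Hill slope.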

[5] = compound at a concentration of 500 nM or 1 mM (not specified), cells shown as percentage
[6] = method AA1 (90 μM ATP) or AA2 (1000 μM ATP), not stated per value
[7] = method AA1 (30 μM ATP) or AA2 (1000 μM ATP), not stated per value
[8] = method AA1 (3 μM ATP) or AA2 (1000 μM ATP), not stated per value
[9] = compound at 500 nM or 1 mM, 90 μM ATP

In the case of `O=S(=O)(Nc1ccc2cc1CCc1cccc(c1)Nc1ncc(Cl)c(n1)N2)c1cccc(C(F)(F)F)c1` [Example B163, N-[6-Chloro-2,4,8,22-tetraazatetracyclo[14.3.1.1(3,7).1(9,13)]docosa-1(20), 3(22),4,6,9(21),10,12,16,18-nonaen-12-yl]-3-(trifluoromethyl)benzenesulfonamide trifluoroacetate], the IC50 ([1]; Table B1) is reported as 0.54 nM, the IC50 ([2]; Table B1) is reported as 0.24 nM and the IC50 ([3]; Table B1) is reported as 1.1 nM. For the same compound, the IC50 (TYK2; Table B1) was 0.97 nM and the “ALK % of inhibition at a concentration of 500 nM or 1 mM” value (shortened to “ALK % of inhibition”) [4, 5] was 80%.

`O=C(CC1CCN(C(=O)NCc2ccccc2)CC1)Nc1ccc2cc1CCc1cncc(c1)Nc1ncc(Cl)c(n1)N2` [Example A155, N-Benzyl-4-(2-{[6-chloro-2,4,8,18,22-pentaazatetracyclo[14.3.1.1(3,7).1(9,13)]docosa-1(20),3(22),4,6,9(21),10,12,16,18-nonaen-12-yl]amino}-2-oxoethyl)piperidine-1-carboxamide bis(trifluoroacetate)] was tested, and the IC50 [1, 6] was 2.4 nM, the IC50 [2, 7] was 4.2 nM and the IC50 [3, 8] was over 100 nM. The IC50 (TYK2) was 3.8 nM and the “ALK % of inhibition” value [4, 9] was 47%.

In the case of `O=C(CN1CCNCC1)Nc1ccc2cc1CCc1cccc(c1)Nc1ncc(Cl)c(n1)N2` [Example A114, tris(trifluoroacetate)], the IC50 [1, 6] is reported as 25 nM, the IC50 [2, 7] is reported as 13 nM and the IC50 [3, 8] is reported as 59 nM. The IC50 (TYK2) was 33 nM and the “ALK % of inhibition” value [4, 9] was 19%.

For `CC(C)(C)OC(=O)N1CC[C@@H](NC(=O)Nc2ccc3cc2CCc2cccc(c2)Nc2ncc(Cl)c(n2)N3)C1` [Example B174, tert-Butyl (3R)-3-[({[6-chloro-2,4,8,22-tetraazatetracyclo[14.3.1.1(3,7).1(9,13)]docosa-1(20),3(22),4,6,9(21),10,12,16,18-nonaen-12-yl]amino}carbonyl)amino]pyrrolidine-1-carboxylate], the IC50 ([1]; Table B1) was 15 nM, the IC50 ([2]; Table B1) was 27 nM and the IC50 ([3]; Table B1) was 124 nM. The IC50 (TYK2; Table B1) was 62 nM and the “ALK % of inhibition” value [4, 5] was 12%.

`Cc1ncoc1C(=O)N1CC[C@H](NC(=O)Nc2ccc3cc2CCc2cncc(c2)Nc2ncc(Cl)c(n2)N3)C1` [Example B273, N-[6-Chloro-2,4,8,18,22-pentaazatetracyclo[14.3.1.1(3,7).1(9,13)]docosa-1(20),3(22),4,6,9(21),10,12,16,18-nonaen-12-yl]-N′-{(3S)-1-[(4-methyl-1,3-oxazol-5-yl)carbonyl]pyrrolidin-3-yl}urea bis(trifluoroacetate)] showed an IC50 ([1]; Table B1) of 117 nM, an IC50 ([2]; Table B1) of 1630 nM and an IC50 ([3]; Table B1) of over 10000 nM. For the same compound, the IC50 (TYK2; Table B1) was 3830 nM and the “ALK % of inhibition” value [4, 5] was 3.2%.

`N#Cc1cccc(C(=O)N2CCC(CC(=O)Nc3ccc4cc3CCc3cccc(c3)Nc3ncc(Cl)c(n3)N4)CC2)c1` [Example A187, N-[6-Chloro-2,4,8,22-tetraazatetracyclo[14.3.1.1(3,7).1(9,13)]docosa-1(20),3(22),4,6,9(21),10,12,16,18-nonaen-12-yl]-2-[1-(3-cyanobenzoyl)piperidin-4-yl]acetamide trifluoroacetate] gave an IC50 [1, 6] of 52 nM, an IC50 [2, 7] of 132 nM and an IC50 [3, 8] of over 200 nM. For the same compound, the IC50 (TYK2) was over 200 nM and the “ALK % of inhibition” value [4, 9] was 37%.

`CC(C)(C)NS(=O)(=O)c1cc2cc(c1)Nc1nc(ncc1Br)Nc1cccc(c1)CC2` [Example B17, 6-Bromo-N-(tert-butyl)-2,4,8,22-tetraazatetracyclo[14.3.1.1(3,7).1(9,13)]docosa-1(20),3(22),4,6,9(21),10,12,16,18-nonaene-11-sulfonamide trifluoroacetate] showed an IC50 ([1]; Table B1) of 71 nM, an IC50 ([2]; Table B1) of 11 nM and an IC50 ([3]; Table B1) of 126 nM. It also gave an IC50 (TYK2; Table B1) of 152 nM and an IC50 [4] of over 10000 nM.

`CC(C)(C)OC(=O)N[C@@H]1CCN(C(=O)Nc2ccc3cc2CCc2cccc(c2)Nc2ncc(Cl)c(n2)N3)C1` [Example B236, tert-Butyl [(3R)-1-({[6-chloro-2,4,8,22-tetraazatetracyclo[14.3.1.1(3,7).1(9,13)]docosa-1(20),3(22),4,6,9(21),10,12,16,18-nonaen-12-yl]amino}carbonyl)pyrrolidin-3-yl]carbamate] gave an IC50 ([1]; Table B1) of 1.7 nM, an IC50 ([2]; Table B1) of 1.7 nM and an IC50 ([3]; Table B1) of 9.7 nM. For the same compound, the IC50 (TYK2; Table B1) was 6.1 nM and the “ALK % of inhibition” value [4, 5] was 29%.

`Cc1ccc(NC(=O)N2CCC(CC(=O)Nc3ccc4cc3CCc3cncc(c3)Nc3ncc(Cl)c(n3)N4)CC2)cc1` [Example A151, 4-(2-{[6-Chloro-2,4,8,18,22-pentaazatetracyclo[14.3.1.1(3,7).1(9,13)]docosa-1(20),3(22),4,6,9(21),10,12,16,18-nonaen-12-yl]amino}-2-oxoethyl)-N-(4-methylphenyl)piperidine-1-carboxamide bis(trifluoroacetate)] gave an IC50 [1, 6] of 0.3 nM, an IC50 [2, 7] of 1.4 nM and an IC50 [3, 8] of over 100 nM. The IC50 (TYK2) was 3.8 nM and the “ALK % of inhibition” value [4, 9] was 45%.

`Cc1ncoc1C(=O)Nc1ccc2cc1CCc1cccc(c1)Nc1ncc(Cl)c(n1)N2` [Example B78, N-[6-Chloro-2,4,8,22-tetraazatetracyclo[14.3.1.1(3,7).1(9,13)]docosa-1(20),3(22),4,6,9(21),10,12,16,18-nonaen-12-yl]-4-methyl-1,3-oxazole-5-carboxamide trifluoroacetate] was tested, and the IC50 ([1]; Table B1) was 11 nM, the IC50 ([2]; Table B1) was 12 nM and the IC50 ([3]; Table B1) was 57 nM. For the same compound, the IC50 (TYK2; Table B1) was 29 nM and the “ALK % of inhibition” value [4, 5] was 44%.

Compound `O=C(Nc1ccc2cc1CCc1cccc(c1)Nc1ncc(Cl)c(n1)N2)N1CCN(c2ccccn2)CC1` [Example B290, N-[6-Chloro-2,4,8,22-tetraazatetracyclo[14.3.1.1(3,7).1(9,13)]docosa-1(20),3(22),4,6,9(21),10,12,16,18-nonaen-12-yl]-4-pyridin-2-ylpiperazine-1-carboxamide bis(trifluoroacetate)] has an IC50 ([1]; Table B1) of 82 nM, an IC50 ([2]; Table B1) of 89 nM and an IC50 ([3]; Table B1) of over 200 nM. The IC50 (TYK2; Table B1) was 59 nM and the “ALK % of inhibition” value [4, 5] was 50%.

Work on `O=C(Nc1ccc2cc1CCc1cccc(c1)Nc1ncc(Cl)c(n1)N2)c1cccs1` [Example B34, N-[6-Chloro-2,4,8,22-tetraazatetracyclo[14.3.1.1(3,7).1(9,13)]docosa-1(20),3(22),4,6,9(21),10,12,16,18-nonaen-12-yl]thiophene-2-carboxamide trifluoroacetate] yielded an IC50 ([1]; Table B1) of 0.85 nM, an IC50 ([2]; Table B1) of 1 nM and an IC50 ([3]; Table B1) of 13 nM. The IC50 (TYK2; Table B1) was 5.6 nM and the IC50 [4] was 470 nM.

Work on `NCC(=O)Nc1ccc2cc1CCc1cccc(c1)Nc1ncc(Cl)c(n1)N2` [Example A107, 2-Amino-N-[6-chloro-2,4,8,22-tetraazatetracyclo[14.3.1.1(3,7).1(9,13)]docosa-1(20),3(22),4,6,9(21),10,12,16,18-nonaen-12-yl]acetamide bis(trifluoroacetate)] yielded an IC50 [1, 6] of 4 nM, an IC50 [2, 7] of 10 nM and an IC50 [3, 8] of 8.2 nM. For the same compound, the IC50 (TYK2) was 4.2 nM and the “ALK % of inhibition” value [4, 9] was 39%.

`O=C(Nc1ccc2cc1CCc1cccc(c1)Nc1ncc(Cl)c(n1)N2)Nc1ccccc1C(F)(F)F` [Example B111, N-[6-Chloro-2,4,8,22-tetraazatetracyclo[14.3.1.1(3,7).1(9,13)]docosa-1(20), 3(22),4,6,9(21),10,12,16,18-nonaen-12-yl]-N′-[2-(trifluoromethyl)phenyl]urea trifluoroacetate] showed an IC50 ([1]; Table B1) of 3.7 nM, an IC50 ([2]; Table B1) of 6 nM and an IC50 ([3]; Table B1) of 21 nM. The IC50 (TYK2; Table B1) was 5 nM and the “ALK % of inhibition” value [4, 5] was 14%.

Compound `O=C(CC1CCN(S(=O)(=O)c2ccccc2C(F)(F)F)CC1)Nc1ccc2cc1CCc1cncc(c1)Nc1ncc(Cl)c(n1)N2` [Example A224, N-[6-Chloro-2,4,8,18,22-pentaazatetracyclo[14.3.1.1(3,7).1(9,13)]docosa-1(20),3(22),4,6,9(21),10,12,16,18-nonaen-12-yl]-2-(1-{[2-(trifluoromethyl)phenyl]sulfonyl}piperidin-4-yl)acetamide bis(trifluoroacetate)] has an IC50 [1, 6] of 14 nM, an IC50 [2, 7] of over 400 nM and an IC50 [3, 8] of over 400 nM. For the same compound, the IC50 (TYK2) was over 400 nM and the “ALK % of inhibition” value [4, 9] was 30%.

`Cc1ccc(N2CCC(CC(=O)Nc3ccc4cc3CCc3cncc(c3)Nc3ncc(Cl)c(n3)N4)CC2)nn1` [Example A173, N-[6-Chloro-2,4,8,18,22-pentaazatetracyclo[14.3.1.1(3,7).1(9,13)]docosa-1(20),3(22),4,6,9(21),10,12,16,18-nonaen-12-yl]-2-[1-(6-methylpyridazin-3-yl)piperidin-4-yl]acetamide tris(trifluoroacetate)] was tested, and the IC50 [1, 6] was 8 nM, the IC50 [2, 7] was 89 nM and the IC50 [3, 8] was over 1000 nM. For the same compound, the IC50 (TYK2) was 105 nM and the “ALK % of inhibition” value [4, 9] was 40%.
